{"source": "patent US10232009B1", "about": "“Peptide for promoting wound healing, its composition and method of using the same” (PRO SUNFUN BIOTECH RESEARCH AND DEVELOPMENT CO., LTD., priority 2017, dated 2019)", "type_in_all_cases": "cell-based, Human", "key": {"HaCaT cells": {"test_system": "HaCaT cells", "experiment": "Transwell migration assay, HaCaT keratinocyte cells", "conditions": "50 μg/ml peptide, 24-hour culture, P<0.05", "description": "(§1) Human keratinocyte HaCaT and skin fibroblast CCD-966SK cells were cultured in Dulbecco's Modified Eagle Medium (DMEM) containing 10% (v/v) FBS and 1% (v/v) antibiotics in 5% CO2 at 37° C.\n(§2) HaCaT cells (5×10^4) or CCD-966SK cells (5×10^3) in 0.25 ml serum-free DMEM were seeded into the upper chamber with an 8-μm pore size membrane (Corning, USA) and 0.5 ml serum free DMEM with or without 50 μg/ml Peptide NO. 9 were loaded to the lower chamber in 24-well culture plate. After 24 hours incubation, cells were fixed and stained with 0.5% (w/v) crystal violet (Sigma) containing 20% (v/v) methanol. The number of migrated cells from 5 random fields was counted under the microscope. Results obtained were analyzed by student's t-test and graphed as mean±SD."}, "CCD-966SK cells": {"test_system": "CCD-966SK cells", "experiment": "Transwell migration assay, CCD-966SK fibroblast cells", "conditions": "50 μg/ml peptide, 24-hour culture, P<0.01", "description": "as §1, §2"}, "HaCaT keratinocyte cells": {"test_system": "HaCaT keratinocyte cells", "experiment": "MTT assay, viability of HaCaT keratinocyte cells", "conditions": "50 μg/ml peptide", "description": "as §1\n(§3) HaCaT keratinocyte cells (3×10^3, each cell line) in 100 μl complete DMEM were seeded in 96-well plates with or without 50 μg/ml Peptide NO. 9, respectively. Ten microliters of 5 mg/ml 3-(4,5-dimethyl-2-thiazolyl)-2,5-diphenyl-2H-tetrazolium bromide solution (MTT; Sigma) was added to each well for the indicated times and incubated at 37° C. for 3 hours, after which 100 μl 10% SDS in 0.01 N HCl was added to dissolve the MTT formazan crystals. The resultant optical density was measured spectrophotometrically at dual wavelengths, 550 and 630 nm."}, "CCD966SK cells": {"test_system": "CCD966SK cells", "experiment": "MTT assay, viability of CCD966SK cells", "conditions": "50 μg/ml peptide", "description": "as §1, §3"}}, "note": "Entries after “also recorded” stand apart in the source; their conditions may differ. Ends that are not written are not given here.", "data": [{"substance": "HTSTEAK [Peptide NO. 9]", "values": [{"measurement": "HaCaT keratinocyte cell migration", "setting": "HaCaT cells", "value": "enhanced HaCaT keratinocyte cell migration; also recorded: significant efficacy in enhancing HaCaT keratinocyte cell migration; also recorded: effect in enhancement of keratinocyte cell migration of HaCaT cells"}, {"measurement": "CCD966SK fibroblast cell migration", "setting": "CCD-966SK cells", "value": "enhanced CCD966SK fibroblast cell migration; also recorded: significant efficacy in enhancing HaCaT CCD966SK fibroblast cell migration"}, {"measurement": "viability of HaCaT keratinocyte cells", "setting": "HaCaT keratinocyte cells; 24-hour culture", "value": "did not significantly affect viability of HaCaT cells"}, {"measurement": "viability of HaCaT keratinocyte cells", "setting": "HaCaT keratinocyte cells; 48-hour culture", "value": "did not significantly affect viability of HaCaT cells"}, {"measurement": "viability of HaCaT keratinocyte cells", "setting": "HaCaT keratinocyte cells; 72-hour culture", "value": "did not significantly affect viability of HaCaT cells"}, {"measurement": "viability of CCD966SK cells", "setting": "CCD966SK cells; 24 hours", "value": "did not significantly affect viability of CCD966SK cells"}, {"measurement": "viability of CCD966SK cells", "setting": "CCD966SK cells; 48 hours", "value": "did not significantly affect viability of CCD966SK cells"}, {"measurement": "viability of CCD966SK cells", "setting": "CCD966SK cells; 72 hours", "value": "did not significantly affect viability of CCD966SK cells"}]}]}
